Data: patent US6545041B2, “Tumor necrosis factor alpha (TNF-α) inhibiting pharmaceuticals” (Yessum Research Development Co. of the Hebrew University of …, priority 1995, dated 2003)
Several values for one entry are separate records, joined by “and”; a condition that tells them apart may be missing. Equal values may be shown once. Entries after “also recorded” stand apart in the source; their conditions may differ.

Tests used:
[1] = cited from earlier work
TNF [2] = assay: Serum TNF activity (bioassay) and levels (ELISA) in LPS treated mice; assay type: in vivo, mice (C57BL/6); settings: 100 μg LPS ip with 200 μg/mouse compound, 90 min
Experimental: An early response to LPS administration is the elevation of serum levels of TNF, which peaks at 1.5-2 hr after LPS administration. Mice treated with LPS serve as a model for the effect of drugs on reducing TNF levels under these conditions.
Serum levels of TNF peak within 1.5 hr following LPS administration, and at this time point, we assessed both TNF activity and levels in the serum.
Mice (C57BL/6) were injected ip with 100 μg LPS, concomitantly with HU-211, HU-210, or HU-245 (200 μg/mouse), and 90 min later they were bled, the sera separated and TNF was assayed for its activity (bioassay) and levels (using ELISA kit).

LPS treated mice = assay: Survival of LPS treated mice; assay type: in vivo, BALB/c male mice; settings: for survival rate / mortality: 24 hours
Experimental: The effect of HU-211 on the survival of mice, in response to administration of LPS was assessed. The survival was followed up to 48 hr.
Animals are administered with either HU-211 at a dose of 10 mg/kg i.p. or vehicle alone (10 ml/kg i.p.), and 30 minutes later with LPS IV. Two dose levels of LPS were tested in the present study: 10 and 15 mg/kg.
Mortality rate was recorded once a day for 2 days.

LPS treated rats = assay: LPS-induced hypotension and hematocrit in rats; assay type: in vivo, Sprague Dawley rats
Experimental: A prominent manifestation of endotoxemia is hypotension, and the effect of a drug on mean arterial blood pressure (MABP) indicates its potency as an anti-endotoxic shock agent. The protective effect of a test compound is evaluated in rats treated with LPS, in which the blood pressure and other vital signs are monitored up to 4 hrs after induction of endotoxemia.
Rats were individually anesthetized with halothane in 70% nitrogen, 30% oxygen. The right femoral artery was catheterized using polyethylene tubes (PE-50, Clay Adams, USA), and connected to a computerized physiograph through a pressure transducer (XTT Vigo, USA). The animals are then connected via a rectal probe to the above physiological recorder. Rectal temperature is kept throughout the study between 37° C. and 38° C., using a heating lamp. Following 10-15 minutes of baseline recording, animals are intravenously administered an injection of saline, vehicle alone or HU-211 at a dose of 4 mg/kg. As soon as possible after completion of the first injection (2-5 minutes later) they are administered an intravenous injection of LPS at a dose of 15 mg/kg (in a volume of 3 ml/kg). Blood pressure and heart rate are recorded for the following 4 hrs. The hematocrit is measured and recorded just prior to drug administration, and 1, 2, and 3 hours later. At the end of the follow up period, animals are sacrificed by deep anesthesia with halothane.

[3] = system: D-galactosamine (D-GALN)-sensitized mice; assay: Lethal toxicity by LPS in D-galactosamine-sensitized mice (endotoxic shock); assay type: in vivo, mice (C57BL/6); settings: for lethality in HU-211 treated group dead/total: LPS 10 ng/mouse + D-GALN, HU-211 7.5 mg/kg plus 8 hourly injections, 24 hrs, exp. no 1-3 and total, controls 20/20, 7.5 mg/kg
Experimental: The effect of HU-211 in endotoxic shock was assessed in a model of lethal toxicity by lipopolysacharide (LPS) in D-galactosamine (D-GALN)-sensitized mice (Galanos et al. PNAS 76: 5739, 1979, Lehman et al. J. Exp. Med. 165: 657, 1987). In this model 100% mortality occurs within 6-8 hrs of administration of the combined treatment.
LPS (10 ng/mouse) and D-GALN ([…]) were coadministered to 20 mice (C57BL/6). Half of the mice served as controls, and the other were treated within 5 min of injection with HU-211 (7.5 mg/kg body weight), followed by 8 additional injections every hour. The survival was followed up to 24 hrs, and the results of this experiment are depicted in Table 1.

TNF [4] = assay: Closed head injury (head trauma) model in rats: TNF, edema, clinical outcome; assay type: in vivo, rat; settings: FIG. 4
Source text: Closed head injury is associated with high mortality and morbidity. It induces edema formation, blood-brain-barrier (BBB) disruption, neuronal cell death and impairment of motor and cognitive functions. Animals subjected to head trauma in a controlled fashion serve as models in which to test drugs of therapeutic potential. Test compounds can be evaluated both for improved clinical outcome and for reduction of edema induced by closed head injury. The ability of compounds to reduce the severity of neurological symptoms and to reduce brain edema is considered a measure of their potency in reducing brain damage.
The effect of HU-211 on TNF production was assessed in a model of head trauma (HT) in rats. Injury was induced in anesthetized rats by a weight-drop device followed by a recovery period of up to 30 days. This type of trauma produces brain edema (i.e. increase in water content, decrease in specific gravity in the brain), breakdown of the blood brain barrier (BBB), clinical and cognitive dysfunction. […]
In this experiment we compared the effects of two agents: 1) pentoxyfilline (PTX), a methylxanthine known for its ability to prevent or attenuate the LPS-induced release of TNF both in vitro and in vivo. […] The levels of TNF were measured after CHI in order to determine whether the beneficial effect of HU-211 is also associated with suppression of TNF production or activity.

[5] = system: collagen induced arthritis; assay: Collagen type 2 induced arthritis; assay type: in vivo, CD-1 male mice; settings: HU-211 20 mg/kg i.p. daily or every 3 days; p<0.01
Experimental: CD-1 male mice (27-33 gr.), five in each treatment group (supplied by Harlan Israel) were used in the present study. Each animal was administered with collagen type 2 (Sigma, batch no. 111H7180) 100 μg/ml in 0.1 ml complete Freund's adjuvant (Sigma batch no. 084H8800). The collagen was administered s.c. into the base of the tail. The volume of each hind paw was measured using a plathysmometer (Hugo Basill, Italy) before collagen administration and on days 1, 4, 7, 10, 13 and 16 of treatment (30 minutes after drug treatment).
Five treatment groups were tested in the present study: vehicle (blank cosolvent) 10 ml/kg once daily, HU-211 10 mg/kg every three days, HU-211 20 mg/kg once daily, HU-211 20 mg/kg every 3 days and diclofenac 10 mg/kg (10 ml/kg) every 3 days. All treatments were administered intraperitoneally. HU-211 was used from a 5% preparation in cosolvent (Pharmos batch no. PRN-C-08623041), by diluting with saline (B. Braun batch no. 3431A41A) 1:25. The same procedure was performed with blank cosolvent (Pharmos batch no. 608945). Diclofenac was prepared in Pharmos, batch no. LG-121\70 1 mg/ml. At the same time paws were measured they were clinically evaluated according to the following method (Williams R. O., Proc. Natl. Acad. Sci. USA: 89:9784-9788): 0—normal, 1—slight swelling and erythema, 2—pronounced edematous swelling and 3—joint rigidity. […]

EAE = assay: Experimental autoimmune encephalomyelitis (EAE) in Lewis rats; assay type: in vivo; settings: single iv injection day 10 to 18 post induction, FIG. 6
Source text: Autoimmune diseases are associated with elevated levels of TNF. The models which are most conveniently studied are experimental allergic encephalomyelitis (EAE) and experimental autoimmune arthritis in rodents. EAE is an autoimmune neurological disease elicited by sensitization of the animals to myelin basic protein from the central nervous system, which is also known as basic encephalitogenic protein. EAE is considered by many to represent a model of the human disease multiple sclerosis. Experimental autoimmune arthritis is induced in animals by immunization with collagen in complete Freund's adjuvant. The ability of compounds of the general formula I to prevent or attenuate the clinical symptoms of these autoimmune diseases was tested.
The Lewis rats used were 8 week old females (from OLAC, England). The animals (5 per cage) were maintained on a 12 hour light/12 hour dark regimen, at a constant temperature of 22° C., with food and water ad libitum. EAE was induced in these animals by immunization with purified guinea pig myelin basic protein emulsified in complete Freund's adjuvant. Guinea pig myelin basic protein (mbp) was prepared from spinal cord homogenates defatted with chloroform/ethanol and the isolated protein was purified using ion exchange chromatography. Each animal received 50 micrograms of the purified protein. […]

[6] = Phase I clinical trials, intravenous, healthy human volunteers; assay type: in vivo; settings: dose ranges contemplated for humans
[7] = Solubility in water / aqueous solutions; assay type: physicochemical
Source text: Among the novel compounds tested, monoesters including nicotinate, succinate and maleate are preferred. Most preferred compounds include the glycinate ester and N-substituted glycinate ester salts, such as the trimethyl- and triethylammonium acetate derivatives of HU-211. These novel compounds have the added advantage of being soluble in some aqueous solutions, whereas the parent compounds are extremely hydrophobic.
(§1) This makes the development of formulations suitable for intravenous administration of HU-211 difficult, hampering its clinical application. Water-soluble derivatives of HU-211 designed to readily release the drug by hydrolysis following i.v. administration might overcome this problem and will be used as prodrugs.

[8] = Passage of the blood-brain barrier
Source text: as §1

TNF [9] = settings: rats, 48 hours after HT; cited from earlier work
[10] = doses far exceeding those contemplated for repression of cytokines; cited from earlier work

CCCCCCC(C)(C)c1cc(O)c2c(c1)OC(C)(C)C1CC=C(CO)CC21 (stereo not shown) [HU-210, 7-hydroxy-Δ^6-tetrahydrocannabinol 1,1-dimethylheptyl homologue, reference compound]
cannabimimetic activity relative to Δ-1-tetrahydrocannabinol ([1]; in vivo): ~100 times

CCCCCCC(C)(C)c1cc(O)c2c(c1)OC(C)(C)[C@H]1CC=C(CO)C[C@H]21 [HU-211, (+)-(3S,4S)-1,1-dimethylheptyl homologue of 7-hydroxy-Δ^6-tetrahydrocannabinol]
TNF levels in serum (ELISA) (TNF [2]): significantly reduced; also recorded: attenuated the LPS-induced production and action of TNF to a very pronounced extent
TNF activity (S50) in serum, bioassay (TNF [2]; LPS control 1233±237): significantly reduced; also recorded: attenuated the LPS-induced production and action of TNF to a very pronounced extent
survival rate (LPS treated mice; LPS 10 mg/kg iv, HU-211 10 mg/kg i.p., vehicle 43%): 91%
mortality (LPS treated mice; LPS 10 mg/kg iv, HU-211 10 mg/kg i.p., vehicle 57%): 9%
survival (LPS treated mice; LPS 10 mg/kg iv, HU-211 10 mg/kg i.p., 48 hours, vehicle none survived): 33%
survival (LPS treated mice; LPS 10 mg/kg iv, HU-211 10 mg/kg i.p., 72 hours post LPS): None of the animals survived
mortality (LPS treated mice; LPS 15 mg/kg iv, HU-211 10 mg/kg i.p. 30 min before, vehicle 67%): 33%
survival rate (LPS treated mice; LPS 15 mg/kg iv, HU-211 10 mg/kg i.p., vehicle 33%): 67%
survival (LPS treated mice; LPS 15 mg/kg iv, HU-211 10 mg/kg i.p., 48 hours): none of the animals survived
time post-LPS at which normotension was regained (LPS treated rats; HU-211 treated rats): ≤ 30 min
duration of transient hypotension (LPS treated rats; HU-211 treated rats, evident 10 minutes after LPS): 5 to 10 min
LPS-induced increase in hematocrit (LPS treated rats; rats, HU-211 iv 2-3 minutes before LPS, LPS alone about 10% increase): prevented
LPS-induced drop in mean arterial blood pressure (MABP) (LPS treated rats; rats, LPS 15 mg/kg iv, HU-211 4 mg/kg iv pre-administration, LPS alone around 30% reduction): abolished
lethality in HU-211 treated group dead/total [3]: 1/5 and 1/10 and 0/5
lethality in HU-211 treated group dead/total ([3]; pooled total of all experiments): 2/20
survival ([3]; LPS + D-GALN mice, HU-211 7.5 mg/kg, total of experiments, controls 0%): 90%
brain levels of TNF after CHI, compared with pentoxyfilline (TNF [4]): significantly superior to that of pentoxyfilline
brain tissue water content (anti-edema effect) after CHI, compared with pentoxyfilline (TNF [4]): significantly superior to that of pentoxyfilline
clinical signs of arthritis (swelling of the paws) [5]: lowest number of these signs
mean clinical score (EAE): diminution of mean clinical score
toxicity or psychoactivity [6]: no evidence of toxicity or psychoactivity
solubility in water / aqueous solutions [7]: very poor solubility in water
passage of the blood-brain barrier [8]: readily passes the blood-brain barrier
edema and clinical outcome after head trauma (TNF [9]): reduced edema and improved the clinical outcome
cannabimimetic activity ([1]; doses several thousand times higher than the ED50 of HU-210): inactive as a cannabimimetic
stereotypy and locomotor hyperactivity [10]: induction of stereotypy and locomotor hyperactivity

CCCCCCC(C)(C)c1cc(O)c2c(c1)OC(C)(C)C1CC=C(C(=O)O)CC21 (stereo not shown) [HU-245]
TNF levels in serum (ELISA) (TNF [2]): significantly reduced
